Marks after values point to notes of the source that are not given here.
Experiments:
[1] = Plasma and brain levels after oral dosing in sound-sensitive mice; conditions: male, genetically sound-sensitive, derived from a DBA strain, mouse, brain, po, 166.2 mg/kg
Method: Male genetically sound-sensitive mice (17-30 g; N=10), derived from a DBA strain originally selected by Dr Lehmann of the Laboratory of Acoustic Physiology (Paris) and bred in the UCB Pharma Sector husbandry unit since 1978, were submitted to the induction of audiogenic seizures. Levetiracetam (5.4 mg/kg) and sodium valproate (166.2 mg/kg) were administered orally, alone or in combination, 60 minutes before the induction of audiogenic seizures. For testing audiogenic seizure, the mice were placed in the cages, one mouse per cage, in the sound-attenuated chamber. After a period of habituation of 30 seconds, the acoustic stimulus (90 dB, 10-20 kHz) was delivered for 30 seconds via the loud speakers. During this interval, the mice were observed and the presence of the 3 phases of the seizure activity, namely wild running, clonic and tonic convulsions, was recorded.
In all animals, blood samples were collected immediately after the seizure test (I h after dosing) by cardiac puncture under light carbon dioxide anesthesia, into heparinised microtubes. […] Levetiracetam was measured in plasma and brain samples by validated gas chromatography assay with mass detection. With sodium valproate, fluorescence polarization immunoassays were used.
The mean value plus standard deviation was calculated for plasma and brain concentrations of valproate and levetiracetam, and for the brain/plasma ratio. […]

[2] = test system: diabetic rats (streptozocin-induced diabetic neuropathy); assay: Randall and Selitto test, mechanical hyperalgesia in streptozotocin diabetic rats; format: in vivo, rat
From the text: In order to study the activity of levetiracetam with respect to chronic or neuropathic pain, the Applicant carried out a series of experiments based on the Randall test “A method for measurement of analgesic activity on inflamed tissue; Arch. Int. pharmacodyn., 1957, CXI, No4. P 409-419”. By virtue of this protocol, it was possible to determine the ability of levetiracetam to correct hyperalgesia secondary to induction of a neuropathic problem of metabolic origin in a rodent.
The diabetic neuropathy thereby induced allowed the correction of the hyperalgesia caused by the use of levetiracetam to be measured.
The animals used for these experiments were male Sprague-Dawley rats (Charles River, France), weighing 250-280 grams (g), which had undergone induction of diabetes one week after receipt. Male Sprague-Dawley rats (200-220 g) received one interperitoneal injection of streptozocin (75 mg/kg, i.p.) (Zanosar, Upjohn, France) dissolved in distilled water. Hyperglycaemia was confirmed one week after induction by determining the quantity of blood glucose (caudal puncture) using a Dextrostix reactive strip (Ames) read using a calorimeter (Ames Division, Miles Laboratoires, France). Animals with more than 14 millimoles (mM) were considered to be diabetic. The pain thresholds were determined 3 weeks after induction of diabetes.
This model was used in accordance with the description in COURTEIX et al., “Streptozocin-induced diabetic rats. Behavioural evidence for a model of chronic pain” Pain (1993), vol. 53, p81-88. The study was performed using the following compounds: • […]: (Laboratories UCB), dissolved in distilled water. • CARBAMAZEPINE: (Sigma), dissolved in hydroxy propel methylcellulose.
As has already been mentioned above, the test explained below was performed to stimulate a reaction in the animal with a mechanical nociceptive stimulus to a hind paw. An increasing pressure was applied using an analgesia meter (Ugo Basile, type 7200), until a cry was emitted which was considered to be the pain threshold, expressed in grams.
After determining the base thresholds, the animals received the study treatments (vehicle, levetiracetam, 17, 54, 95.2 and 120 mg/kg, carbamazepine, 10 and 30 mg/kg) administered intraperitoneally (i.p.) using the equal block method to avoid any chronobiological influence. The effects of different treatments were thus determined during the same time period. The reaction thresholds were measured 15, 30, 45, 60, 90, 120 and 180 minutes (min) after administration. All of the experiments were performed blind with 8 different animals per treatment.
The results are expressed as means±standard error of mean (S.E.M.).
The dose which could overcome 50% of the hyperalgesia induced by diabetes was calculated as the “anti-hyperalgesic dose effective 50”.
Statistical comparison was carried out by means of a two-way analysis of variance followed by Fischer's PLSD multiple comparison test to analyze the temporal effect.

[3] = test system: healthy volunteers; assay: Clinical studies, tolerability in healthy volunteers; format: in vivo, human
[4] = test system: 55 different binding sites including different receptor systems, reuptake sites, second messenger systems and channel proteins; conditions: in vitro; cited from earlier work
[5] = test system: epileptic patients; assay: Tolerability studies in epileptic patients; format: in vivo, human; conditions: doses up to 4000 mg/day; preliminary data
[6] = test system: chloride fluxes induced by muscimol; conditions: cited from earlier work

## CCCC(CCC)C(=O)[O-].[Na+] [Valproate, sodium valproate]
[1]
  Kp at 1 h: 0.13 ± 0.02

## CC[C@@H](C(N)=O)N1CCCC1=O [Levetiracetam, (S)-(−)α-ethyl-2-oxo-1-pyrrolidineacetamide]
[2]; dose overcoming 50% of the hyperalgesia induced by diabetes, i.p.
  anti-hyperalgesic effective dose 50: 35.1 ± 1.8 mg/kg
[2]; i.p., diabetic rats
  Effect on diabetic hyperalgesia (in words): a dose of 120 mg/kg of levetiracetam caused complete correction of hyperalgesia
[2]; levetiracetam 17 mg/kg i.p. group, before diabetes (baseline), mean (SEM)
  vocalization threshold: 282.2 (5.48) g
[2]; levetiracetam 17 mg/kg i.p., 15 min after injection
  vocalization threshold: 211.9 (7.19)* g
[2]; levetiracetam 17 mg/kg i.p., 30 min after injection
  vocalization threshold: 206.3 (10.12)* g
[2]; levetiracetam 17 mg/kg i.p., 45 min after injection
  vocalization threshold: 193.1 (7.19) g
[2]; levetiracetam 17 mg/kg i.p., 60 min after injection
  vocalization threshold: 185.6 (4.86) g
[2]; levetiracetam 17 mg/kg i.p., 90 min after injection
  vocalization threshold: 178.1 (3.40) g
[2]; levetiracetam 17 mg/kg i.p., 120 min after injection
  vocalization threshold: 180.0 (2.83) g
[2]; levetiracetam 17 mg/kg i.p., 180 min after injection
  vocalization threshold: 176.3 (2.45) g
[2]; levetiracetam 17 mg/kg i.p., after diabetes, 0 min (base threshold)
  vocalization threshold: 181.9 (3.09) g
[2]; levetiracetam 54 mg/kg i.p. group, before diabetes (baseline), mean (SEM)
  vocalization threshold: 296.3 (10.12) g
[2]; levetiracetam 54 mg/kg i.p., 15 min after injection
  vocalization threshold: 238.1 g
[2]; levetiracetam 54 mg/kg i.p., 30 min after injection
  vocalization threshold: 243.8 (15.97)* g
[2]; levetiracetam 54 mg/kg i.p., 45 min after injection
  vocalization threshold: 230.6 g
[2]; levetiracetam 54 mg/kg i.p., 60 min after injection
  vocalization threshold: 189.4 (13.87) g
[2]; levetiracetam 54 mg/kg i.p., 90 min after injection
  vocalization threshold: 176.3 (8.39) g
[2]; levetiracetam 54 mg/kg i.p., 120 min after injection
  vocalization threshold: 176.3 (6.80) g
[2]; levetiracetam 54 mg/kg i.p., 180 min after injection
  vocalization threshold: 176.3 (6.80) g
[2]; levetiracetam 54 mg/kg i.p., after diabetes, 0 min (base threshold)
  vocalization threshold: 180.0 (5.30) g
[2]; levetiracetam 95.2 mg/kg i.p. group, before diabetes (baseline), mean (SEM)
  vocalization threshold: 306.6 (11.73) g
[2]; levetiracetam 95.2 mg/kg i.p., 15 min after injection
  vocalization threshold: 264.4 g
[2]; levetiracetam 95.2 mg/kg i.p., 30 min after injection
  vocalization threshold: 283.1 (24.62)* g
[2]; levetiracetam 95.2 mg/kg i.p., 45 min after injection
  vocalization threshold: 234.4 g
[2]; levetiracetam 95.2 mg/kg i.p., 60 min after injection
  vocalization threshold: 180.0 (12.36) g
[2]; levetiracetam 95.2 mg/kg i.p., 90 min after injection
  vocalization threshold: 180.0 (8.02) g
[2]; levetiracetam 95.2 mg/kg i.p., 120 min after injection
  vocalization threshold: 159.4 (3.95) g
[2]; levetiracetam 95.2 mg/kg i.p., 180 min after injection
  vocalization threshold: 163.1 (4.43) g
[2]; levetiracetam 95.2 mg/kg i.p., after diabetes, 0 min (base threshold)
  vocalization threshold: 169.7 (6.00) g
[2]; levetiracetam 120 mg/kg i.p. group, before diabetes (baseline), mean (SEM)
  vocalization threshold: 309.4 (15.25) g
[2]; levetiracetam 120 mg/kg i.p., 15 min after injection
  vocalization threshold: 331.9 g
[2]; levetiracetam 120 mg/kg i.p., 30 min after injection
  vocalization threshold: 315.0 (30.00)* g
[2]; levetiracetam 120 mg/kg i.p., 45 min after injection
  vocalization threshold: 262.5 g
[2]; levetiracetam 120 mg/kg i.p., 60 min after injection
  vocalization threshold: 213.8 (13.52)* g
[2]; levetiracetam 120 mg/kg i.p., 90 min after injection
  vocalization threshold: 176.3 (7.36) g
[2]; levetiracetam 120 mg/kg i.p., 120 min after injection
  vocalization threshold: 174.4 (6.30) g
[2]; levetiracetam 120 mg/kg i.p., 180 min after injection
  vocalization threshold: 168.8 (4.70) g
[2]; levetiracetam 120 mg/kg i.p., after diabetes, 0 min (base threshold)
  vocalization threshold: 161.3 (7.23) g
[3]; repeated doses 1500 mg/day for 14 days
  tolerability (in words): well tolerated
[3]; single dose
  tolerability (in words): well tolerated
[4]
  displacement of ligands specific for 55 different binding sites: not revealed any significant displacement
[5]
  tolerability (in words): good tolerability
[6]
  modulation of chloride fluxes induced by muscimol: did not modulate

Reference: patent publication US6903130B1, “Pyrrolidineacetamide derivative alone or in combination for treatment of cns disorders” (UCB S.A., priority 1999, dated 2005)
